Strand notation (5' to 3'): a small letter for the sugar, then the base; units joined by * are phosphorothioate-linked, units joined directly phosphodiester-linked; [ ] holds rarer units or linkages, { } end groups; capitals alone tell only the bases. e = 2'-O-(2-methoxyethyl) (MOE); [5mC] = 5-methylcytosine; d = 2'-deoxy (DNA)
The substances below were run on human PKK mRNA (assay: Antisense inhibition of human PKK mRNA in HepaRG cells, 5,000 nM (Example 2)). Settings: HepaRG cells, 5,000 nM antisense oligonucleotide, human PKK mRNA; Table 18.
Type: cell-based
Procedure, shortened: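 Chimeric MOE gapmers with full phosphorothioate backbones were tested once at 5,000 nM in electroporated HepaRG cells. After about 24 hours, quantitative PCR measured PKK mRNA relative to untreated control cells.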
“548716 (DNA eT*eA*eT*d[5mC]*dA*d[5mC]*dT*dG*dT*dA*d[5mC]*dT*dA*eG*eT*eT; antisense) [compound 548716]” was tested, and the “% inhibition” value was 10%.

Same assay, conditions: HepaRG cells, 5,000 nM antisense oligonucleotide; 5-10-5 gapmers; Table 16
For “547706 (antisense eT*eG*e[5mC]*e[5mC]*eT*d[5mC]*d[5mC]*dT*dG*dG*d[5mC]*dA*dG*d[5mC]*d[5mC]*eT*eT*e[5mC]*eA*eA) [compound 547706]”, the “% inhibition” value was 73%.

Same assay, conditions: HepaRG cells, 5,000 nM antisense oligonucleotide; 5-10-5 gapmers; Table 17
For “547085 (e[5mC]*e[5mC]*eA*eG*eG*dT*dG*d[5mC]*dA*dG*d[5mC]*dA*d[5mC]*dG*dG*eA*eG*eA*eG*eG; antisense) [compound 547085]”, the “% inhibition” value was 44%.
With “547774 (antisense eG*eA*eG*eA*e[5mC]*dA*dG*dT*dT*dT*dG*dG*d[5mC]*dA*dA*eG*e[5mC]*eT*eA*e[5mC]) [compound 547774]” the “% inhibition” value was 46%.
In the case of “547746 (eG*eT*eT*eG*eG*dT*dG*dG*d[5mC]*dG*dG*dG*dA*dT*d[5mC]*eG*eG*eT*eG*eG; antisense) [compound 547746]”, the “% inhibition” value was 0%.
With “547782 (antisense e[5mC]*e[5mC]*eA*eA*eG*dT*dA*dT*d[5mC]*dT*d[5mC]*dA*dT*dG*dT*eG*e[5mC]*e[5mC]*eT*eG) [compound 547782]” the “% inhibition” value was 67%.
With “546606 (e[5mC]*eT*e[5mC]*eA*e[5mC]*d[5mC]*dA*dG*dA*dG*dT*dT*dG*dT*d[5mC]*e[5mC]*e[5mC]*e[5mC]*eA*eG; antisense) [compound 546606]” the “% inhibition” value was 0%.

Same assay, conditions: HepaRG cells, electroporation with 5,000 nM antisense oligonucleotide, approximately 24 hours, PKK mRNA by RT-PCR (RTS3454), relative to untreated control cells; Table 5 experiment
For “546172 (antisense eA*eA*e[5mC]*eA*e[5mC]*dT*dA*dT*d[5mC]*dT*dT*dT*d[5mC]*dA*dA*eG*eA*eA*eG*e[5mC]) [compound 546172]”, the “% inhibition” value was 81%.
“547295 (antisense eA*e[5mC]*e[5mC]*eT*e[5mC]*dA*dT*d[5mC]*dT*dG*dG*d[5mC]*dA*dG*dT*eA*eT*eT*eG*eG) [compound 547295]” was tested, and the “% inhibition” value was 88%.
“546163 (eA*e[5mC]*eT*eT*eG*d[5mC]*dT*dG*dG*dA*dA*dG*dA*dA*dA*eA*e[5mC]*eT*eG*eA; antisense) [compound 546163]” was tested, and the “% inhibition” value was 42%.
“546170 (antisense eG*e[5mC]*eA*eA*e[5mC]*d[5mC]*dA*dA*dA*d[5mC]*d[5mC]*dT*dT*dT*dT*e[5mC]*eT*e[5mC]*e[5mC]*eA) [compound 546170]” was tested, and the “% inhibition” value was 54%.

Same assay, conditions: HepaRG cells, electroporation with 5,000 nM antisense oligonucleotide, approximately 24 hours, PKK mRNA by RT-PCR (RTS3454), relative to untreated control cells; Table 6 experiment
With “547328 (antisense eA*eT*eT*eT*eG*dA*dT*dG*dA*d[5mC]*d[5mC]*dA*d[5mC]*dA*dT*eT*eG*e[5mC]*eT*eT) [compound 547328]” the “% inhibition” value was 40%.
“547350 (antisense eG*eG*e[5mC]*eA*eT*dT*d[5mC]*dT*dT*d[5mC]*dA*dA*d[5mC]*dA*d[5mC]*eT*eG*e[5mC]*eT*eA) [compound 547350]” was tested, and the “% inhibition” value was 96%.

Same assay, conditions: HepaRG cells, electroporation, 5,000 nM antisense oligonucleotide, approx. 24 hours, primer probe set RTS3454, relative to untreated control cells; Table 11
In the case of “546391 (eG*e[5mC]*eA*eT*eT*dG*dT*d[5mC]*dA*dG*d[5mC]*d[5mC]*d[5mC]*d[5mC]*dT*eG*eG*eT*eT*eA; antisense) [compound 546391]”, the “% inhibition” value was 54%.
For “547504 (antisense eG*eA*eA*e[5mC]*eT*d[5mC]*dA*dG*dG*dT*dT*dG*dT*dA*dA*eA*eA*eA*eT*eT) [compound 547504]”, the “% inhibition” value was 37%.
For “546353 (antisense e[5mC]*eT*e[5mC]*eA*eG*d[5mC]*dG*dA*d[5mC]*dT*dT*dT*dG*dG*dT*eG*eT*eA*eG*eA) [compound 546353]”, the “% inhibition” value was 55%.
With “547494 (antisense eT*eG*eG*eT*eG*dA*d[5mC]*dT*dG*d[5mC]*dA*dT*d[5mC]*dT*dG*eA*eG*e[5mC]*eT*eT) [compound 547494]” the “% inhibition” value was 70%.

Same assay, conditions: HepaRG cells, electroporation, 5,000 nM antisense oligonucleotide, approx. 24 hours, primer probe set RTS3454, relative to untreated control cells; Table 12
In the case of “547552 (antisense e[5mC]*eT*e[5mC]*e[5mC]*e[5mC]*d[5mC]*dA*dT*dG*d[5mC]*dA*dT*dA*d[5mC]*dT*e[5mC]*eG*e[5mC]*e[5mC]*eT) [compound 547552]”, the “% inhibition” value was 53%.
With “546494 (eG*e[5mC]*eA*eT*eA*d[5mC]*dT*d[5mC]*dG*d[5mC]*d[5mC]*dT*dT*dT*dG*eT*eG*eA*e[5mC]*eT; antisense) [compound 546494]” the “% inhibition” value was 67%.
“546500 (eT*eT*e[5mC]*e[5mC]*eA*dT*dG*d[5mC]*dA*dT*dA*d[5mC]*dT*d[5mC]*dG*e[5mC]*e[5mC]*eT*eT*eT; antisense) [compound 546500]” was tested, and the “% inhibition” value was 46%.
For “546508 (eG*e[5mC]*eA*eG*e[5mC]*dA*dA*dG*dT*dG*d[5mC]*dT*d[5mC]*d[5mC]*d[5mC]*e[5mC]*eA*eT*eG*e[5mC]; antisense) [compound 546508]”, the “% inhibition” value was 43%.
“546683 (eT*e[5mC]*e[5mC]*eT*eA*dT*d[5mC]*d[5mC]*dG*dT*dG*dT*dT*d[5mC]*dA*eG*e[5mC]*eT*eG*eT; antisense) [compound 546683]” was tested, and the “% inhibition” value was 69%.

Same assay, conditions: Table 7; HepaRG cells, electroporation with 5,000 nM antisense oligonucleotide, approx. 24 hours; PKK mRNA by RT-PCR (RTS3454), relative to untreated control cells
With “547398 (e[5mC]*eA*eG*eG*eG*dT*dT*d[5mC]*dA*dG*dG*dT*dA*dA*dA*eG*eT*eT*e[5mC]*eT; antisense) [compound 547398]” the “% inhibition” value was 16%.
With “546217 (antisense e[5mC]*eA*e[5mC]*eA*eA*dA*dA*dG*d[5mC]*dA*dT*d[5mC]*dT*dG*dG*eA*eG*eT*eG*eA) [compound 546217]” the “% inhibition” value was 83%.
In the case of “547395 (eA*eA*eG*eT*eT*d[5mC]*dT*dT*dT*dT*dG*d[5mC]*dA*dG*dG*eT*eT*eA*eA*eA; antisense) [compound 547395]”, the “% inhibition” value was 15%.
For “546218 (antisense eT*eG*eG*eT*e[5mC]*d[5mC]*dG*dA*d[5mC]*dA*d[5mC]*dA*d[5mC]*dA*dA*eA*eA*eG*e[5mC]*eA) [compound 546218]”, the “% inhibition” value was 71%.

Same assay, conditions: Table 8; HepaRG cells, electroporation with 5,000 nM antisense oligonucleotide, approx. 24 hours; PKK mRNA by RT-PCR (RTS3454), relative to untreated control cells
For “546296 (antisense eG*eA*eA*eG*e[5mC]*d[5mC]*d[5mC]*dA*dT*d[5mC]*dA*dA*dA*dG*d[5mC]*eA*eG*eT*eG*eG) [compound 546296]”, the “% inhibition” value was 27%.
With “546303 (antisense eT*eT*eT*eG*eT*dG*dA*dG*dA*dA*dA*dG*dG*dT*dG*eT*eA*eT*e[5mC]*eT) [compound 546303]” the “% inhibition” value was 77%.
For “546270 (eA*e[5mC]*eA*e[5mC]*eT*dT*dA*d[5mC]*dA*d[5mC]*dT*dT*d[5mC]*dT*d[5mC]*eT*eT*e[5mC]*e[5mC]*eT; antisense) [compound 546270]”, the “% inhibition” value was 32%.

Same assay, conditions: Table 13; human PKK mRNA in HepaRG cells; 5-10-5 gapmers
In the case of “546841 (e[5mC]*eA*e[5mC]*eT*eG*dT*d[5mC]*d[5mC]*dT*dA*dT*dA*dA*d[5mC]*dT*e[5mC]*eT*eA*eA*e[5mC]; antisense) [compound 546841]”, the “% inhibition” value was 38%.
For “546791 (eG*eA*eT*eG*e[5mC]*dA*dT*dG*d[5mC]*dA*dG*d[5mC]*dA*dA*dT*eA*e[5mC]*eA*eG*eG; antisense) [compound 546791]”, the “% inhibition” value was 52%.
With “547580 (eA*eT*e[5mC]*eA*e[5mC]*dT*dG*dT*d[5mC]*d[5mC]*dT*dA*dT*dA*dA*e[5mC]*eT*e[5mC]*eT*eA; antisense) [compound 547580]” the “% inhibition” value was 61%.

Same assay, conditions: human PKK mRNA in HepaRG cells; 5-10-5 gapmers; Table 14
For “547598 (antisense eA*e[5mC]*eT*eA*eT*dA*dA*d[5mC]*dA*dA*dT*dA*dT*d[5mC]*dA*e[5mC]*eT*eG*eT*e[5mC]) [compound 547598]”, the “% inhibition” value was 59%.
With “546882 (eT*eA*eG*eT*eT*dT*d[5mC]*d[5mC]*dT*dA*dT*dA*dA*d[5mC]*dA*eG*eT*eA*eT*e[5mC]; antisense) [compound 546882]” the “% inhibition” value was 24%.

Same assay, conditions: human PKK mRNA, HepaRG cells, 5,000 nM antisense oligonucleotide, Table 18
For “548776 (antisense e[5mC]*e[5mC]*eT*eA*dT*dA*dA*d[5mC]*dT*dA*dT*dA*dA*e[5mC]*eA*eA*eT) [compound 548776]”, the “% inhibition” value was 0%.
With “548741 (DNA e[5mC]*eT*eG*eT*dA*d[5mC]*dT*dA*dG*dT*dT*dT*d[5mC]*e[5mC]*eT*eA*eT; antisense) [compound 548741]” the “% inhibition” value was 69%.
In the case of “548783 (antisense eA*e[5mC]*e[5mC]*eT*dA*dT*dA*dA*d[5mC]*dT*dA*dT*dA*eA*e[5mC]*eA*eA) [compound 548783]”, the “% inhibition” value was 0%.

Same assay, conditions: human PKK mRNA, HepaRG cells; 5-10-5 motif oligonucleotides targeting SEQ ID NO: 1 and 10
“546904 (eT*e[5mC]*e[5mC]*eT*eA*dT*dA*dT*d[5mC]*dA*d[5mC]*dT*dG*dT*dA*e[5mC]*e[5mC]*eT*eA*eT; antisense) [compound 546904]” was tested, and the “% inhibition” value was 80%.
“546899 (e[5mC]*eT*eA*e[5mC]*e[5mC]*dT*dA*dT*dA*dA*d[5mC]*dT*d[5mC]*dT*dA*eA*e[5mC]*eA*eG*eT; antisense) [compound 546899]” was tested, and the “% inhibition” value was 27%.
For “547655 (eA*eA*eT*eA*eT*d[5mC]*dA*d[5mC]*dT*dG*dT*d[5mC]*d[5mC]*dT*dA*eT*eA*eA*e[5mC]*eT; antisense) [compound 547655]”, the “% inhibition” value was 37%.
With “546887 (e[5mC]*e[5mC]*eT*eA*eT*dG*dT*d[5mC]*dA*d[5mC]*dT*dG*dT*dA*d[5mC]*e[5mC]*eT*eA*eT*eA; antisense) [compound 546887]” the “% inhibition” value was 82%.
For “547646 (e[5mC]*eT*eA*eT*eA*dT*d[5mC]*dA*d[5mC]*dT*dG*dT*dA*d[5mC]*d[5mC]*eT*eA*eT*eA*eA; antisense) [compound 547646]”, the “% inhibition” value was 23%.
With “546910 (eT*eA*eA*e[5mC]*eA*dA*dT*dA*dT*d[5mC]*dA*d[5mC]*dT*dG*dT*eA*e[5mC]*e[5mC]*eT*eT; antisense) [compound 546910]” the “% inhibition” value was 82%.

— US11840686B2, “Modulation of prekallikrein (PKK) expression” (Ionis Pharmaceuticals, Inc., priority 2013, dated 2023)
